From BindingDB's records for doi:10.1016/j.bmcl.2007.06.058 (Mahidol University, 2007) come the findings set out here.

Molecules are shown by their SMILES.

This assay in a line: Inhibition of rhFGF2-induced cellular proliferation of HUVEC.

Take `Cc1[nH]c(/C=C2\C(=O)Nc3cc(-c4ccccc4)ccc32)c(C)c1CCC(=O)O`: the IC50 (usually the midpoint of a concentration-inhibition curve) was more than 50 µM.

The compound `COc1cccc(-c2ccc3c(c2)NC(=O)/C3=C\c2[nH]c(C)c(CCC(=O)O)c2C)c1` [3-(5-{[(3Z)-6-(3-methoxyphenyl)-2-oxo-2,3-dihydro-1H-indol-3-ylidene]methyl}-2,4-dimethyl-1H-pyrrol-3-yl)propanoic acid] had an IC50 of 17.9 µM.

As to `COc1cc(OC)cc(-c2ccc3c(c2)NC(=O)/C3=C\c2[nH]c(C)c(CCC(=O)O)c2C)c1` [(Z)-3-(5-((6-(3,5-dimethoxyphenyl)-2-oxoindolin-3-ylidene)methyl)-2,4-dimethyl-1H-pyrrol-3-yl)propanoic acid], the IC50 was found to be 18.2 µM.
